Experimental data from ChEMBL document CHEMBL1201862, “PubChem BioAssay data set” (2004).
Activity calls are given as the source filed them. Cut-off read from the data, not from the text of the source: actives have a measured IC50 and inactives only a lower limit.

These molecules were tested against Envelope glycoprotein gp160 (Human immunodeficiency virus 1, UniProt Q6QLK5) (assay: inhibitors of HIV fusion peptide binding, primary screen, biochemical, uHTS, fluorescence dequenching (AID 1986)).
Sequence of Envelope glycoprotein gp160 (Q6QLK5 whole entry, the tested form may be a part): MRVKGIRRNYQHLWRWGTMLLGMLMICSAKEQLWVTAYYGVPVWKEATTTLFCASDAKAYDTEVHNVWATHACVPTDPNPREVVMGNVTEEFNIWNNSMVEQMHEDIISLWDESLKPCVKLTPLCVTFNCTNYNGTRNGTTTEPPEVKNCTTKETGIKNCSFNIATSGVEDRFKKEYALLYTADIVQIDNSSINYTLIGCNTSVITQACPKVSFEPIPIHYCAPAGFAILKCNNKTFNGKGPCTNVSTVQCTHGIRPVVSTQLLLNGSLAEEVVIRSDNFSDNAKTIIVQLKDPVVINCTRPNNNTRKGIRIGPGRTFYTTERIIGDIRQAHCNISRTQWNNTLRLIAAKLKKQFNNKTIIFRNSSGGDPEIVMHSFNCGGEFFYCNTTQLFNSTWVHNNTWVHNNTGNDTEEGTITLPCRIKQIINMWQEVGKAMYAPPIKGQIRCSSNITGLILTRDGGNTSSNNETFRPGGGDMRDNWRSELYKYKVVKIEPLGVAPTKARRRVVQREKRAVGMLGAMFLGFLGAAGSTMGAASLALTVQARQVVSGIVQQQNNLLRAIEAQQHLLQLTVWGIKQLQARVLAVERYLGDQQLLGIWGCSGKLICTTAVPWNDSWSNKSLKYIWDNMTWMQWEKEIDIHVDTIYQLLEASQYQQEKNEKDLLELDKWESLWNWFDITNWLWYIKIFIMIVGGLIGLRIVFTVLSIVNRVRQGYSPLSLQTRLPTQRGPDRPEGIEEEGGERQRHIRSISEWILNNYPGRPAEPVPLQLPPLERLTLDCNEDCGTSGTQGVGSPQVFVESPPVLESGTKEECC
In the case of `COc1cc(/C=C2\C(=N)N3N=C(S(C)(=O)=O)SC3=NC2=O)cc(OC)c1OCCOc1cccc(C)c1`, the IC50 is reported as 13.8 µM (active). In the case of `O=C(O)c1cccc(-n2cccc2/C=C2/NC(=O)N(c3ccc(Cl)cc3)C2=O)c1`, the IC50 is reported as 16.9 µM (active). For `N#Cc1c(O)nc(SCC(=O)Nc2ccc(OC(F)(F)Cl)cc2)nc1-c1ccccc1`, the IC50 was 15.6 µM (active).
